{"source": "patent US20230146239A1", "about": "(THE SCRIPPS RESEARCH INSTITUTE, priority 2020, published 2023)", "key": {"[1]": {"tested_on": "VanA VRE E. faecalis BM 4166 and E. faecium ATCC BAA-2317", "conditions": "previously reported; C1-vancomycin even at 100 μM; cited from earlier work"}, "[2]": {"tested_on": "VanA E. faecalis (BM 4166)", "conditions": "earlier trimethylammonium cation modified analogues; cited from earlier work"}, "[3]": {"tested_on": "VanA E. faecium (ATCC BAA-2317)", "assay": "In vitro antimicrobial microdilution assay (MIC)", "format": "cell-based, Enterococcus faecium", "conditions": "Enterococcus faecium, ATCCBAA2317, read-out: MIC, VanA E. faecium ATCC BAA-2317", "excerpt": "(§1) The lowest concentration of antibiotic (in μg/mL) capable of eliminating cell growth in the wells is the reported MIC value."}, "[4]": {"tested_on": "VanA E. faecium (ATCC BAA-2317)", "conditions": "earlier trimethylammonium cation modified analogues; cited from earlier work"}, "[5]": {"tested_on": "VanA E. faecalis BM 4166 or ATCC BAA-2573", "assay": "microbe, parasite or virus in culture", "format": "cell-based", "conditions": "Enterococcus faecalis, ATCCBAA2573, read-out: MIC, VanA E. faecalis", "excerpt": "as §1"}}}
{"smiles": "CN[C@H](CC(C)C)C(=O)N[C@H]1C(=O)N[C@@H](CC(N)=O)C(=O)N[C@H]2C(=O)NC3C(=O)N[C@H](C(=O)N[C@H](C(=O)NCCC[N+](C)(C)C)c4cc(O)cc(O)c4-c4cc3ccc4O)[C@H](O)c3ccc(c(Cl)c3)Oc3cc2cc(c3OC2OC(CO)C(O)[C@H](O)[C@@H]2O[C@H]2CC(C)(N)[C@H](O)[C@H](C)O2)Oc2ccc(cc2Cl)[C@H]1O", "note": "(some centres unmarked) [Compound 3, C1-vancomycin]", "values": [{"measurement": "bacterial cell membrane permeabilization", "setting": "[1]", "result": "weaker"}, {"measurement": "MIC, VanA E. faecalis BM 4166", "setting": "[2]", "result": 63, "unit": "µg/mL"}, {"measurement": "MIC", "setting": "[3]", "result": 31, "unit": "µg/mL"}, {"measurement": "MIC, VanA E. faecium ATCC BAA-2317", "setting": "[4]", "result": 31, "unit": "µg/mL"}, {"measurement": "MIC", "setting": "[5]", "result": 63, "unit": "µg/mL"}]}
